Data: PubChem BioAssay (NCI)
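Step 1: Grow cells in 96-well plates. Step 2: Expose to compound for 48 hours at 5 concentrations. Step 3: Interpolate endpoints linearly; if unreached, use highest concentration. The concentration for full growth arrest is given as TGI.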

What was measured:
Assay in all cases: NCI tumour cell line growth inhibition, 48 h
KM12 colon = test system: KM12 colon
DLD-1 colon = test system: DLD-1 colon
HCC-2998 colon = test system: HCC-2998 colon
SNB-19 CNS = test system: SNB-19 CNS
MALME-3M melanoma = test system: MALME-3M melanoma
NCI/ADR-RES ovarian = test system: NCI/ADR-RES ovarian
SF-539 CNS = test system: SF-539 CNS
A498 renal = test system: A498 renal
NCI-H23 lung = test system: NCI-H23 lung
OVCAR-3 ovarian = test system: OVCAR-3 ovarian
OVCAR-5 ovarian = test system: OVCAR-5 ovarian
EKVX NSCLC = test system: EKVX NSCLC
M19-MEL melanoma = test system: M19-MEL melanoma
HOP-18 NSCLC = test system: HOP-18 NSCLC
HOP-92 NSCLC = test system: HOP-92 NSCLC
XF 498 CNS = test system: XF 498 CNS
OVCAR-4 ovarian = test system: OVCAR-4 ovarian
SN12K1 renal = test system: SN12K1 renal
SNB-78 CNS = test system: SNB-78 CNS
P388 leukemia = test system: P388 leukemia
HCT-116 colon = test system: HCT-116 colon
SW-620 colon = test system: SW-620 colon
SK-MEL-2 melanoma = test system: SK-MEL-2 melanoma
OVCAR-8 ovarian = test system: OVCAR-8 ovarian
HOP-62 NSCLC = test system: HOP-62 NSCLC
NCI-H522 lung = test system: NCI-H522 lung
KM20L2 colon = test system: KM20L2 colon
HCT-15 colon = test system: HCT-15 colon
COLO 205 colon = test system: COLO 205 colon
P388/ADR leukemia = test system: P388/ADR leukemia
SF-268 CNS = test system: SF-268 CNS
SK-MEL-28 melanoma = test system: SK-MEL-28 melanoma
LOX IMVI melanoma = test system: LOX IMVI melanoma
UACC-257 melanoma = test system: UACC-257 melanoma
CAKI-1 renal = test system: CAKI-1 renal
MOLT-4 leukemia = test system: MOLT-4 leukemia
NCI-H226 lung = test system: NCI-H226 lung
DMS 273 small cell lung = test system: DMS 273 small cell lung
UACC-62 melanoma = test system: UACC-62 melanoma
HT29 colon = test system: HT29 colon
NCI-H460 lung = test system: NCI-H460 lung
MCF7 breast = test system: MCF7 breast
K-562 leukemia = test system: K-562 leukemia
RPMI-8226 leukemia = test system: RPMI-8226 leukemia
SNB-75 CNS = test system: SNB-75 CNS
A549 NSCLC = test system: A549 NSCLC
CCRF-CEM leukemia = test system: CCRF-CEM leukemia
HL-60(TB) leukemia = test system: HL-60(TB) leukemia
U251 CNS = test system: U251 CNS
RXF 393 renal = test system: RXF 393 renal
IGROV1 ovarian = test system: IGROV1 ovarian
SK-MEL-5 melanoma = test system: SK-MEL-5 melanoma
SK-OV-3 ovarian = test system: SK-OV-3 ovarian
UO-31 renal = test system: UO-31 renal
SN12C renal = test system: SN12C renal
SF-295 CNS = test system: SF-295 CNS
DMS 114 small cell lung = test system: DMS 114 small cell lung
LXFL 529 NSCLC = test system: LXFL 529 NSCLC
ACHN renal = test system: ACHN renal
RXF-631 renal = test system: RXF-631 renal
TK-10 renal = test system: TK-10 renal
M14 melanoma = test system: M14 melanoma
786-0 renal = test system: 786-0 renal

Measured: TGI

O=C(O)C1CCC(=O)N1S(=O)(=O)c1ccccc1 (stereo unspecified)
not listed: LXFL 529 NSCLC | ACHN renal | RXF-631 renal | TK-10 renal | M14 melanoma | 786-0 renal
> 100 µM: all other assays above

COC(=O)C(CC(C)=O)CS(=O)(=O)CC(=O)C(=O)Nc1cccc([N+](=O)[O-])c1 (stereo unspecified)
not listed: NCI/ADR-RES ovarian | SN12K1 renal | P388 leukemia | P388/ADR leukemia | MOLT-4 leukemia | HT29 colon | MCF7 breast | HL-60(TB) leukemia | SF-295 CNS
> 100 µM: all other assays above
